# Laboratory results published in US10780092B2, “Fused pyrazine derivatives useful as soluble guanylate cyclase stimulators” (Merck Sharp & Dohme Corp., priority 2016, dated 2020).
# Assays:
# sGC α1/β1 heterodimer = sGC α1/β1 heterodimer (Homo sapiens (Human), UniProt Q02108+Q02153); assay: Cell-based sGC functional assay (CASA assay), cGMP by HTRF; details: CHO-K1/sGC cells; for Emax: CHO-K1, cGMP production as percentage of maximum of compound A (set to 100%), read-out: % Activation; for EC50: inflection point of cGMP production, 4P fit, read-out: IP
# Description: Cell-Based sGC Functional Assay (Cyclic GMP Assay for sGC Activator: CASA Assay)
# Soluble guanylate cyclase (sGC) is a heme-containing enzyme that converts GTP to secondary messenger cGMP. Increases in cGMP levels affect several physiological processes including vasorelaxation through multiple downstream pathways. […] Heme-dependent activators (HDAs) preferentially target sGC containing a ferrous heme group. To determine the effect of sGC activators on enzyme activity, the CASA assay was developed to monitor the generation of cGMP in a cell line that stably expresses the heterodimeric sGC protein.
# A CHO-K1 cell line stably expressing the sGC α1/β1 heterodimer was generated using a standard transfection protocol. The cDNA's encoding human sGC α1 and β1 were cloned in pIRES hyg and pIRES neo respectively using standard molecular biology techniques. The plasmids pIRES hyg and pIRES neo plasmids were obtained from Clontech. CHO-K1 cells were transfected with plasmids pIREShyg-hsGCα1 and pIRESneo-hsGCβ1 simultaneously using FUGENE reagent. Clones that stably express both subunits were selected with hygromycin and neomycin for ˜2 weeks. The clone chosen for the assay was designated CHO-K1/sGC. CHO-K1/sGC cells were maintained in F-K12 medium containing 10% heat-inactivated Fetal Bovine Serum (FBS), 100 μg/mL penicillin/streptomycin, 0.5 mg/mL hygromycin and 0.25 mg/mL G418. The cells were then cryopreserved in liquid nitrogen. On the day of the assay, the cells were thawed and resuspended in EBSS Assay Buffer (Sigma, E3024) supplemented with 5 mM MgCl2, 10 mM HEPES (4-(2-hydroxyethyl)piperazine-1-ethanesulfonic acid) and 0.05% BSA (bovine serum albumin) and cell density was then adjusted to 2.25×10^5/mL with EAB. IBMX (3-isobutyl-1-methylxanthin, 0.5 mM) was added to inhibit degradation of cGMP. Compounds were diluted from DMSO stock solutions and added to the assay at a final DMSO concentration of 2.5%. Cells were pre-incubated in the presence and absence of 1 μM of Diethylenetriamine/nitric oxide adduct (DETA-NO; Sigma, 17018) for 30 min at 25° C. Compounds were subsequently added and incubated for 1 hr at 37° C. At the end of the incubation period, the reaction was terminated and the cells were lysed with the detection reagents from Cisbio Kits. The level of intracellular cGMP was determined using an HTRF-based assay kit (CisBio, 62GM2PEC), which detects the displacement of a fluorescence labeled cGMP from its specific antibody. The cGMP produced by test compounds was directly compared to the maximum cGMP production (this value was set to equal 100% activation) of the published sGC compound A (Example 1 in WO 2010/065275, published Jun. 10, 2010).
# The test compounds' activities were then expressed as a percentage of compound A, the standard in every experiment. This percent activation was calculated either in the presence or absence of DETA-NO which was then plotted. Inflection points (IP) and maximum fold induction was derived using Abase analysis software for 4P fit.
# [1] = molecular target: human recombinant sGC enzyme (Homo sapiens (Human), UniProt Q02108+Q02153); assay: SEC competition binding assay with [3H] Compound B radioligand; details: displacement of 1.6 nM [3H] Compound B, 24 h at 37° C.
# Description: The binding potencies of sGC compounds to the human recombinant sGC enzyme were determined in a Size Exclusion Chromatography (SEC) competition binding assay using [^3H] Compound B as the radioligand. [^3H] Compound B was prepared using a standardardized tritium exchange procedure. The parent (non-labeled) molecule was first iodinated then a Pd-catalyzed iodine to tritium exchange provided the labeled compound.
# Method: The binding buffer was composed of 50 mM triethanolamine pH 7.4, 3 mM MgCl2, 0.025% BSA, 2 mM dithiothreitol (DTT), 300 μM DETA/NO and 400 μM GTP. Assays were conducted in 96-well plates in a total volume of 200 μL. Recombinant human sGC protein (40 ng) was incubated with 1.6 nM [^3H] Compound B for 24 h at 37° C. in the presence and absence of various concentrations of sGC testing compounds delivered as DMSO solutions to give a total of 1% organic solvent content. Non-specific binding was defined by competition with 1 μM of Compound B. After the incubation period, the binding mixtures were loaded onto the gel-filtration plate (ThermoFischer Cat. No. 89808) pre-equilibrated with binding buffer and spun at 1000×g for 3 min at 4° C. on a Bench top centrifuge. The collected eluates in White Frame Clear Well Isoplates (Perkin Elmer Cat #6005040) received 100 μl of UltimaGold scintillation cocktail. The sealed plates were shaken vigorously and span, and counted after 6 hs with a Wallac Microbeta TriLux 1450 LSC & Luminescence Counter (Perkin Elmer). Data from competition experiments were analyzed to determine Ki values using one site—fit Ki equation.
Emax (sGC α1/β1 heterodimer),EC50 (sGC α1/β1 heterodimer),Ki [1],SMILES
116%,98 nM,0.153 nM,"CC1(c2cc(O)c(Cl)c(F)c2)C(=O)Nc2nc(-c3cn4ccnc4c(CC4CCCCC4)n3)nc(N)c21 (stereo not drawn) [Example 12-B, 4-Amino-5-(4-chloro-3-fluoro-5-hydroxyphenyl)-2-(8-(cyclohexylmethyl)imidazo[1,2-a]pyrazin-6-yl)-5-methyl-5,7-dihydro-6H-pyrrolo[2,3-d]pyrimidin-6-one]"
102%,217 nM,0.098 nM,"CC1(c2cc(O)c(Cl)c(F)c2)C(=O)Nc2nc(-c3cn4ccnc4c(Cc4cc(F)cc(F)c4F)n3)nc(N)c21 (stereo not drawn) [Example 7-B, 4-Amino-5-(4-chloro-3-fluoro-5-hydroxyphenyl)-5-methyl-2-{8-[(2,3,5-trifluorophenyl)methyl]imidazo[1,2-a]pyrazin-6-yl}-5,7-dihydro-6H-pyrrolo[2,3-d]pyrimidin-6-one]"
97%,553 nM,0.803 nM,"Cc1cn2cc(-c3nc(N)c4c(n3)NC(=O)C4(C)c3ccc(Cl)c(O)c3)nc(Cc3cccc(F)c3)c2n1 (stereo not drawn) [Example 99-A, 4-Amino-5-(4-chloro-3-hydroxyphenyl)-2-{8-[(3-fluorophenyl)methyl]-2-methylimidazo[1,2-a]pyrazin-6-yl}-5-methyl-5,7-dihydro-6H-pyrrolo[2,3-d]pyrimidin-6-one]"
101%,816 nM,0.827 nM,"CC1(c2ccc(Cl)c(O)c2)C(=O)Nc2nc(-c3cn4c(N)cnc4c(Cc4cccc(F)c4)n3)nc(N)c21 (stereo not drawn) [Example 140-A, 4-Amino-2-(3-amino-8-[(3-fluorophenyl)methyl]imidazo[1,2-a]pyrazin-6-yl)-5-(4-chloro-3-hydroxyphenyl)-5-methyl-5,7-dihydro-6H-pyrrolo[2,3-d]pyrimidin-6-one]"
101%,873 nM,0.446 nM,"CCCCc1nc(-c2nc(N)c3c(n2)NC(=O)C3(C)c2cc(O)c(Cl)c(F)c2)cn2ccnc12 (stereo not drawn) [Example 39-B, 4-Amino-2-(8-butylimidazo[1,2-a]pyrazin-6-yl)-5-(4-chloro-3-fluoro-5-hydroxyphenyl)-5-methyl-5,7-dihydro-6H-pyrrolo[2,3-d]pyrimidin-6-one]"
74%,3530 nM,1.14 nM,"CC1(c2cc(O)c(C#N)c(Cl)c2)C(=O)Nc2nc(-c3cn4ccnc4c(CC4CCCCC4)n3)nc(N)c21 (stereo not drawn) [Example 142-A, 4-(4-amino-2-{8-(cyclohexylmethyl)-imidazo[1,2-a]pyrazin-6-yl}-5-methyl-6-oxo-6,7-dihydro-5H-pyrrolo-[2,3-d]pyrimidin-5-yl)-2-chloro-6-hydroxy-benzonitrile]"
81%,694 nM,6.01 nM,"CC1(c2ncc(Cl)c(O)c2Cl)C(=O)Nc2nc(-c3cn4ccnc4c(Cc4cc(F)cc(F)c4)n3)nc(N)c21 (stereo not drawn) [Example 73-A, 4-Amino-5-(3,5-dichloro-4-hydroxypyridin-2-yl)-2-{8-[(3,5-difluorophenyl)methyl]imidazo[1,2-a]pyrazin-6-yl}-5-methyl-5,7-dihydro-6H-pyrrolo[2,3-d]pyrimidin-6-one]"
100%,460 nM,0.507 nM,"CC1(c2ccc(Cl)c(O)c2)C(=O)Nc2nc(-c3cn4ccnc4c(Cc4ccc(Cl)cc4)n3)nc(N)c21 (stereo not drawn) [Example 44-A, 4-Amino-5-(4-chloro-3-hydroxyphenyl)-2-{8-[(4-chlorophenyl)methyl]imidazo[1,2-a]pyrazin-6-yl}-5-methyl-5,7-dihydro-6H-pyrrolo[2,3-d]pyrimidin-6-one]"
118%,9980 nM,9.72 nM,"Cc1cccc(Cc2nc(-c3nc(N)c4c(n3)NC(=O)C4(C)c3ccc(O)c(F)c3)cn3ccnc23)c1 (stereo not drawn) [Example 127-B, 4-Amino-5-(3-fluoro-4-hydroxyphenyl)-5-methyl-2-{8-[(3-methylphenyl)-methyl]imidazo[1,2-a]-pyrazin-6-yl}-5,7-dihydro-6H-pyrrolo[2,3-d]-pyrimidin-6-one]"
116%,381 nM,0.393 nM,"CC1(c2ccc(Cl)c(O)c2)C(=O)Nc2nc(-c3cn4ccnc4c(Cc4cc(F)cc(F)c4)n3)nc(N)c21 (stereo not drawn) [Example 36-A, 4-Amino-5-(4-chloro-3-hydroxyphenyl)-2-{8-[(3,5-difluorophenyl)methyl]imidazo[1,2-a]pyrazin-6-yl}-5-methyl-5,7-dihydro-6H-pyrrolo[2,3-d]pyrimidin-6-one]"
70%,19 nM,9.98 nM,"CC1(c2ccc(O)cc2)C(=O)Nc2nc(-c3cn4ncnc4c(CCC(F)(F)C(F)(F)F)n3)nc(N)c21 (stereo not drawn) [Example 80-B, 4-Amino-5-(4-hydroxyphenyl)-5-methyl-2-(8-(3,3,4,4,4-pentafluorobutyl)-[1,2,4]triazolo[1,5-a]pyrazin-6-yl)-5,7-dihydro-6H-pyrrolo[2,3-d]pyrimidin-6-one]"
120%,1570 nM,0.565 nM,"Cc1cc(C2(C)C(=O)Nc3nc(-c4cn5ccnc5c(Cc5cccc(F)c5)n4)nc(N)c32)ccc1O (stereo not drawn) [Example 45-A, 4-Amino-2-{8-[(3-fluorophenyl)methyl]imidazo[1,2-a]pyrazin-6-yl}-5-(4-hydroxy-3-methylphenyl)-5-methyl-5,7-dihydro-6H-pyrrolo[2,3-d]pyrimidin-6-one]"
65%,169 nM,4.62 nM,"CC1(c2ccc(Cl)c(O)c2)C(=O)Nc2nc(-c3cn4ncnc4c(CCC(F)(F)C(F)(F)F)n3)nc(NCCC(F)(F)F)c21 (stereo not drawn) [Example 138-A, 5-(4-Chloro-3-hydroxy-phenyl)-5-methyl-2-(8-(3,3,4,4,4-pentafluoro-butyl)-[1,2,4]triazolo-[1,5-a]pyrazin-6-yl)-4-((3,3,3-trifluoropropyl)-amino)-5,7-dihydro-6H-pyrrolo[2,3-d]pyrimidin-6-one]"
143%,95 nM,0.206 nM,"CC1(c2cc(O)c(Cl)c(F)c2)C(=O)Nc2nc(-c3cn4ncnc4c(CC4CCCCC4)n3)nc(N)c21 (stereo not drawn) [Example 21-B, 4-Amino-5-(4-chloro-3-fluoro-5-hydroxyphenyl)-2-(8-(cyclohexylmethyl)-[1,2,4]triazolo[1,5-a]pyrazin-6-yl)-5-methyl-5,7-dihydro-6H-pyrrolo[2,3-d]pyrimidin-6-one]"
99%,746 nM,1.21 nM,"CC1(c2ccc(Cl)c(O)c2)C(=O)Nc2nc(-c3cn4ccnc4c(Cc4ccc(F)cc4)n3)nc(NCC(O)C(F)(F)F)c21 (single isomer, unassigned) [Example 132-AA, 5-(4-Chloro-3-hydroxy-phenyl)-2-{8-[(4-fluoro-phenyl)methyl]imidazo-[1,2-a]pyrazin-6-yl}-5-methyl-4-[(3,3,3-trifluoro-2-hydroxy-propyl)amino]-5,7-dihydro-6H-pyrrolo-[2,3-d]-pyrimidin-6-one]"
